# From ChEMBL document CHEMBL1132382 (J Med Chem, 1999)
# pKi: −log10 of the molar value.
# Assays:
# [1] = molecular target: T1, Carbonic anhydrase 4 (Bos taurus, UniProt Q95323)
# T1 sequence (Q95323 whole entry): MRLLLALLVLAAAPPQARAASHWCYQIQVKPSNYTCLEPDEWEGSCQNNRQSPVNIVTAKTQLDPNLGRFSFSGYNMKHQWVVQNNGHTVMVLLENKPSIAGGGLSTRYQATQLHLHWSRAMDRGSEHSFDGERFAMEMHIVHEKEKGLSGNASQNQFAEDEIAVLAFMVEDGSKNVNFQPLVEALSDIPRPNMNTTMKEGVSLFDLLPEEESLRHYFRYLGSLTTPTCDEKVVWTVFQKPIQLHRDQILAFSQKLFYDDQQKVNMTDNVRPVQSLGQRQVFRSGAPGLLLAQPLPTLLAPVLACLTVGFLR
# Description: Inhibitory activity against bovine carbonic anhydrase IV (CA4), isolated from bovine lung microsomes
# [2] = species on record: Oryctolagus cuniculus; assay: The compound was evaluated for fall in intraocular pressure (IOP) of Normotensive rabbits after treatment with one drop (50 microL) of a 2% solution at 30 min (pH 5.5); format: functional, Eye
# [3] = species on record: Oryctolagus cuniculus; assay: The compound was evaluated for fall in intraocular pressure (IOP) of Normotensive rabbits after treatment with one drop (50 microL) of a 2% solution at 0 min (pH 5.5); format: functional, Eye
# [4] = species on record: Oryctolagus cuniculus; assay: The compound was evaluated for fall in intraocular pressure (IOP) of Normotensive rabbits after treatment with one drop (50 microL) of a 2% solution at 90 min (pH 5.5); format: functional, Eye
# [5] = molecular target: Carbonic anhydrase 1 (Homo sapiens, UniProt P00915)
# Chain of Carbonic anhydrase 1 (P00915 whole entry): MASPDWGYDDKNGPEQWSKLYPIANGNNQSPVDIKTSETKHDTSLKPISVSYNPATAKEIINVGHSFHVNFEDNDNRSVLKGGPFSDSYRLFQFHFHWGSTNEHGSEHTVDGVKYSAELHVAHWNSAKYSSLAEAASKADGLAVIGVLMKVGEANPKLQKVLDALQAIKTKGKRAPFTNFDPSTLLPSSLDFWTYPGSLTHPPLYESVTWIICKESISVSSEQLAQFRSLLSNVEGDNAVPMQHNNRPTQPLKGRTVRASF
# Description: Inhibitory activity against human recombinant carbonic anhydrase I (CA1)
# [6] = species on record: Oryctolagus cuniculus; assay: The compound was evaluated for fall in intraocular pressure (IOP) of Normotensive rabbits after treatment with one drop (50 microL) of a 2% solution at 0 min (pH 6.4); format: functional, Eye
# [7] = species on record: Oryctolagus cuniculus; assay: The compound was evaluated for fall in intraocular pressure (IOP) of Normotensive rabbits after treatment with one drop (50 microL) of a 2% solution at 90 min (pH 6.4); format: functional, Eye
# [8] = species on record: Oryctolagus cuniculus; assay: The compound was evaluated for fall in intraocular pressure (IOP) of Normotensive rabbits after treatment with one drop (50 microL) of a 2% solution at 30 min (pH 6.4); format: functional, Eye
# [9] = species on record: Oryctolagus cuniculus; assay: The compound was evaluated for fall in intraocular pressure (IOP) of Normotensive rabbits after treatment with one drop (50 microL) of a 2% solution at 60 min (pH 6.4); format: functional, Eye
# [10] = not given; remark: listed apart in the source
# [11] = octanol/water
# Description: Partition coefficient (logD) (chloroform/buffer)
# [12] = physchem; details: buffer, pH 7.4
# [13] = species on record: Oryctolagus cuniculus; assay: The compound was evaluated for fall in intraocular pressure (IOP) of Normotensive rabbits after treatment with one drop (50 microL) of a 2% solution at 60 min (pH 5.5); format: functional, Eye
# [14] = species on record: Oryctolagus cuniculus; assay: The compound was evaluated for fall in intraocular pressure (IOP) of Glaucomatous rabbits after treatment with one drop (50 microL) of a 2% solution at 60 min (pH 6.4); format: functional, Eye
# [15] = species on record: Oryctolagus cuniculus; assay: The compound was evaluated for fall in intraocular pressure (IOP) of Glaucomatous rabbits after treatment with one drop (50 microL) of a 2% solution at 90 min (pH 6.4); format: functional, Eye
# [16] = species on record: Oryctolagus cuniculus; assay: The compound was evaluated for fall in intraocular pressure (IOP) of Narmotensive rabbits after treatment with one drop (50 microL) of a 2% solution at 0 min (pH 6.4); format: functional, Eye
# [17] = species on record: Oryctolagus cuniculus; assay: The compound was evaluated for fall in intraocular pressure (IOP) of Narmotensive rabbits after treatment with one drop (50 microL) of a 2% solution at 30 min (pH 6.4); format: functional, Eye
# [18] = species on record: Oryctolagus cuniculus; assay: The compound was evaluated for fall in intraocular pressure (IOP) of Narmotensive rabbits after treatment with one drop (50 microL) of a 2% solution at 60 min (pH 6.4); format: functional, Eye
# [19] = species on record: Oryctolagus cuniculus; assay: The compound was evaluated for fall in intraocular pressure (IOP) of Narmotensive rabbits after treatment with one drop (50 microL) of a 2% solution at 90 min (pH 6.4); format: functional, Eye
# [20] = species on record: Oryctolagus cuniculus; assay: The compound was evaluated for fall in intraocular pressure (IOP) of Glaucomatous rabbits after treatment with one drop (50 microL) of a 2% solution at 0 min ((pH 6.4); format: functional, Eye
# [21] = species on record: Oryctolagus cuniculus; assay: The compound was evaluated for fall in intraocular pressure (IOP) of Glaucomatous rabbits after treatment with one drop (50 microL) of a 2% solution at 30 min (pH 6.4); format: functional, Eye
# [22] = species on record: Oryctolagus cuniculus; assay: The compound was evaluated for fall in intraocular pressure (IOP) of Normotensive rabbits after treatment with one drop (50 microL) of a 2% solution at 0 min (pH 6.5); format: functional, Eye
# [23] = species on record: Oryctolagus cuniculus; assay: The compound was evaluated for fall in intraocular pressure (IOP) of Normotensive rabbits after treatment with one drop (50 microL) of a 2% solution at 30 min (pH 6.5); format: functional, Eye
# [24] = species on record: Oryctolagus cuniculus; assay: The compound was evaluated for fall in intraocular pressure (IOP) of Normotensive rabbits after treatment with one drop (50 microL) of a 2% solution at 60 min (pH 6.5); format: functional, Eye
# [25] = species on record: Oryctolagus cuniculus; assay: The compound was evaluated for fall in intraocular pressure (IOP) of Normotensive rabbits after treatment with one drop (50 microL) of a 2% solution at 90 min (pH 6.5); format: functional, Eye
# [26] = species on record: Oryctolagus cuniculus; assay: The compound was evaluated for fall in intraocular pressure (IOP) of Normotensive rabbits after treatment with one drop (50 microL) of a 2% solution at 30 min (pH 5.6); format: functional, Eye
# [27] = species on record: Oryctolagus cuniculus; assay: The compound was evaluated for fall in intraocular pressure (IOP) of Normotensive rabbits after treatment with one drop (50 microL) of a 2% solution at 0 min (pH 5.6); format: functional, Eye
# [28] = species on record: Oryctolagus cuniculus; assay: The compound was evaluated for fall in intraocular pressure (IOP) of Normotensive rabbits after treatment with one drop (50 microL) of a 2% solution at 60 min (pH 5.6); format: functional, Eye
# [29] = species on record: Oryctolagus cuniculus; assay: The compound was evaluated for fall in intraocular pressure (IOP) of Normotensive rabbits after treatment with one drop (50 microL) of a 2% solution at 90 min (pH 5.6); format: functional, Eye
compound,measurement,setting,value
NCC(=O)Nc1nnc(S(N)(=O)=O)s1,pKi,[1],7.26
same,Change in IOP,[2],2.9 mmHg
same,Change in IOP,[3],0 mmHg
same,Change in IOP,[4],4.6 mmHg
same,pKi,[5],6.46
CCN(C(=O)CN(C)C(=N)N)C1CC(C)S(=O)(=O)c2sc(S(N)(=O)=O)cc21 (configuration not stated),pKi,[1],7.57
same,Change in IOP,[6],0 mmHg
same,Change in IOP,[7],7.6 mmHg
same,Change in IOP,[8],5 mmHg
same,Change in IOP,[9],9.1 mmHg
same,pKi,[5],7.12
NCC(=O)NCC(=O)NS(=O)(=O)c1nc2ccc(OCCO)cc2s1,pKi,[1],7.74
same,Change in IOP,[6],0 mmHg
same,Change in IOP,[7],5.4 mmHg
same,Change in IOP,[8],3.3 mmHg
same,Change in IOP,[9],7 mmHg
same,pKi,[5],8.05
same,kin,,3.1 h⁻¹
same,kin,[10],6.4 h⁻¹
same,logD,[11],1.85
same,solubility,[12],50 mM
NCC(=O)NCCC(=O)Nc1nnc(S(N)(=O)=O)s1,pKi,[1],8.00
same,Change in IOP,[2],5 mmHg
same,Change in IOP,[3],0 mmHg
same,Change in IOP,[13],9.3 mmHg
same,Change in IOP,[4],8.4 mmHg
same,pKi,[5],7.68
NCC(=O)NCC(=O)Nc1c(S(N)(=O)=O)cc(S(N)(=O)=O)c(Cl)c1Cl,pKi,[1],7.25
same,Change in IOP,[6],0 mmHg
same,Change in IOP,[7],4.8 mmHg
same,Change in IOP,[8],3.2 mmHg
same,Change in IOP,[9],7 mmHg
same,pKi,[5],6.30
same,kin,,4.8 h⁻¹
same,kin,[10],11.5 h⁻¹
same,logD,[11],2.133
same,solubility,[12],59 mM
CCN(C(=O)CNC(=O)CN)C1CC(C)S(=O)(=O)c2sc(S(N)(=O)=O)cc21 (configuration not stated),pKi,[1],7.51
same,Change in IOP,[6],0 mmHg
same,Change in IOP,[7],6.9 mmHg
same,Change in IOP,[8],4.9 mmHg
same,Change in IOP,[9],8.7 mmHg
same,pKi,[5],7.05
NCC(=O)NCC(=O)Nc1nnc(S(N)(=O)=O)s1,pKi,[1],7.35
same,Change in IOP,[14],12 mmHg
same,Change in IOP,[15],13.8 mmHg
same,Change in IOP,[16],0 mmHg
same,Change in IOP,[17],5.6 mmHg
same,Change in IOP,[18],9 mmHg
same,Change in IOP,[19],8.9 mmHg
same,Change in IOP,[20],0 mmHg
same,Change in IOP,[21],7.7 mmHg
same,pKi,[5],6.49
CC(=O)/N=c1/sc(S(N)(=O)=O)nn1C [METHAZOLAMIDE],kin,,1.9 h⁻¹
same,kin,[10],13 h⁻¹
same,logD,[11],0.06
CN(CC(=O)Nc1ccc(S(N)(=O)=O)cc1F)C(=N)N,pKi,[1],7.41
same,Change in IOP,[22],0 mmHg
same,Change in IOP,[23],3 mmHg
same,Change in IOP,[24],7.2 mmHg
same,Change in IOP,[25],5 mmHg
same,pKi,[5],6.29
CNCC(=O)Nc1cc(Cl)c(S(N)(=O)=O)cc1S(N)(=O)=O,pKi,[1],7.30
same,Change in IOP,[2],2.5 mmHg
same,Change in IOP,[3],0 mmHg
same,Change in IOP,[13],5.2 mmHg
same,Change in IOP,[4],4.5 mmHg
same,pKi,[5],6.46
same,kin,,4.6 h⁻¹
same,kin,[10],7.9 h⁻¹
same,logD,[11],1.569
same,solubility,[12],54 mM
CNCC(=O)Nc1ccc(S(=O)(=O)Nc2ccc(S(N)(=O)=O)cc2)cc1,pKi,[1],7.21
same,Change in IOP,[22],0 mmHg
same,Change in IOP,[23],2.5 mmHg
same,Change in IOP,[24],6.3 mmHg
same,Change in IOP,[25],5.5 mmHg
same,pKi,[5],7.30
CCNC1CC(C)S(=O)(=O)c2sc(S(=O)(=O)NC(=O)CNC)cc21 (configuration not stated),pKi,[1],7.52
same,Change in IOP,[26],3.1 mmHg
same,Change in IOP,[27],0 mmHg
same,Change in IOP,[28],7 mmHg
same,Change in IOP,[29],5.5 mmHg
same,pKi,[5],7.11
same,kin,,3.9 h⁻¹
same,kin,[10],7.8 h⁻¹
same,logD,[11],1.785
same,solubility,[12],62 mM
CNCC(=O)Nc1ccc(S(N)(=O)=O)cc1Br,pKi,[1],7.19
same,pKi,[5],6.27
Cn1nc(S(N)(=O)=O)s/c1=N\C(=O)CN,pKi,[1],7.15
same,pKi,[5],6.47
CNCC(=O)NS(=O)(=O)c1ccc(CCO)cc1,pKi,[1],6.95
same,pKi,[5],5.89
NCC(=O)NNc1ccc(S(N)(=O)=O)cc1,pKi,[1],6.52
same,pKi,[5],4.59
NCC(=O)NCC(=O)Nc1ccc(S(N)(=O)=O)cc1,pKi,[1],6.81
same,pKi,[5],4.82
NCC(=O)NCC(=O)Nc1ccc(S(N)(=O)=O)cc1I,pKi,[1],7.15
same,pKi,[5],6.23
CNCC(=O)NS(=O)(=O)c1nc2ccc(OCCO)cc2s1,pKi,[1],7.82
same,pKi,[5],8.00
NCC(=O)NCC(=O)NS(=O)(=O)c1ccc(CCO)cc1,pKi,[1],6.82
same,pKi,[5],5.82
NCC(=O)NS(=O)(=O)c1nc2ccc(OCCO)cc2s1,pKi,[1],7.64
same,pKi,[5],8.05
NCC(=O)NCC(=O)Nc1cc(Cl)c(S(N)(=O)=O)cc1S(N)(=O)=O,pKi,[1],7.27
same,pKi,[5],6.44
NCC(=O)NCC(=O)NS(=O)(=O)c1nc2ccc(O)cc2s1,pKi,[1],7.21
same,pKi,[5],7.92
NCC(=O)Nc1ccc(S(N)(=O)=O)cc1Cl,pKi,[1],7.11
same,pKi,[5],6.22
CNCC(=O)/N=c1\sc(S(N)(=O)=O)nn1C,pKi,[1],7.37
same,Change in IOP,[22],0 mmHg
same,Change in IOP,[23],3.3 mmHg
same,Change in IOP,[24],6.2 mmHg
same,Change in IOP,[25],5.5 mmHg
same,pKi,[5],6.54
CN(CC(=O)Nc1ccc(S(=O)(=O)Nc2ccc(S(N)(=O)=O)cc2)cc1)C(=N)N,pKi,[1],7.29
same,pKi,[5],7.34
NCC(=O)NS(=O)(=O)c1ccc(CO)cc1,pKi,[1],6.74
same,pKi,[5],5.74
